Data: PubChem BioAssay (NCI)
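Grown in 96-well plates, cells were treated for 48 hours with each compound at five concentrations. Insufficient inhibition: endpoint recorded as highest concentration tested. The concentration for full growth arrest is given as TGI.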

Tests used:
Experiment in all cases: NCI anticancer screen, dose series, 48 h
CAKI-1 renal = tested on: CAKI-1 renal
IGROV1 ovarian = tested on: IGROV1 ovarian
HT29 colon = tested on: HT29 colon
SW-620 colon = tested on: SW-620 colon
T-47D breast = tested on: T-47D breast
PC-3 prostate = tested on: PC-3 prostate
HOP-92 NSCLC = tested on: HOP-92 NSCLC
MDA-N = tested on: MDA-N
BT-549 breast = tested on: BT-549 breast
HCT-116 colon = tested on: HCT-116 colon
MDA-MB-435 = tested on: MDA-MB-435
MCF7 breast = tested on: MCF7 breast
HS 578T breast = tested on: HS 578T breast
SNB-75 CNS = tested on: SNB-75 CNS
MDA-MB-231 breast = tested on: MDA-MB-231 breast
SR leukemia = tested on: SR leukemia
MALME-3M melanoma = tested on: MALME-3M melanoma
OVCAR-3 ovarian = tested on: OVCAR-3 ovarian
UACC-62 melanoma = tested on: UACC-62 melanoma
SF-268 CNS = tested on: SF-268 CNS
DU-145 prostate = tested on: DU-145 prostate
TK-10 renal = tested on: TK-10 renal
K-562 leukemia = tested on: K-562 leukemia
SK-MEL-2 melanoma = tested on: SK-MEL-2 melanoma
A549 NSCLC = tested on: A549 NSCLC
OVCAR-4 ovarian = tested on: OVCAR-4 ovarian
SF-539 CNS = tested on: SF-539 CNS
NCI-H460 lung = tested on: NCI-H460 lung
OVCAR-8 ovarian = tested on: OVCAR-8 ovarian
M14 melanoma = tested on: M14 melanoma
SF-295 CNS = tested on: SF-295 CNS
786-0 renal = tested on: 786-0 renal
MOLT-4 leukemia = tested on: MOLT-4 leukemia
OVCAR-5 ovarian = tested on: OVCAR-5 ovarian
ACHN renal = tested on: ACHN renal
HCT-15 colon = tested on: HCT-15 colon
EKVX NSCLC = tested on: EKVX NSCLC
NCI-H522 lung = tested on: NCI-H522 lung
UO-31 renal = tested on: UO-31 renal
UACC-257 melanoma = tested on: UACC-257 melanoma
SK-MEL-28 melanoma = tested on: SK-MEL-28 melanoma
HCC-2998 colon = tested on: HCC-2998 colon
SK-OV-3 ovarian = tested on: SK-OV-3 ovarian
HOP-62 NSCLC = tested on: HOP-62 NSCLC
A498 renal = tested on: A498 renal
SK-MEL-5 melanoma = tested on: SK-MEL-5 melanoma
NCI-H23 lung = tested on: NCI-H23 lung
U251 CNS = tested on: U251 CNS
NCI-H226 lung = tested on: NCI-H226 lung
LOX IMVI melanoma = tested on: LOX IMVI melanoma
SNB-19 CNS = tested on: SNB-19 CNS
KM12 colon = tested on: KM12 colon
NCI/ADR-RES ovarian = tested on: NCI/ADR-RES ovarian
COLO 205 colon = tested on: COLO 205 colon
RPMI-8226 leukemia = tested on: RPMI-8226 leukemia
RXF 393 renal = tested on: RXF 393 renal
SN12C renal = tested on: SN12C renal

CN(C)CCn1c(=O)nc2c3c(c([N+](=O)[O-])ccc31)Nc1ccc(O)cc1-2
TGI (CAKI-1 renal): > 45.7 µM | TGI (IGROV1 ovarian): 12.3 µM | TGI (HT29 colon): 15.3 µM | TGI (SW-620 colon): > 42.6 µM | TGI (T-47D breast): 6.48 µM | TGI (PC-3 prostate): > 46.9 µM | TGI (HOP-92 NSCLC): 16.2 µM | TGI (MDA-N): 23.7 µM | TGI (BT-549 breast): 37 µM | TGI (HCT-116 colon): 8.37 µM | TGI (MDA-MB-435): 46.6 µM | TGI (MCF7 breast): 5.68 µM | TGI (HS 578T breast): 22.4 µM | TGI (SNB-75 CNS): 21.2 µM | TGI (MDA-MB-231 breast): 10.2 µM | TGI (SR leukemia): 8.92 µM | TGI (MALME-3M melanoma): 18 µM | TGI (OVCAR-3 ovarian): 15.3 µM | TGI (UACC-62 melanoma): 23.2 µM | TGI (SF-268 CNS): 17.1 µM | TGI (DU-145 prostate): > 47.5 µM | TGI (TK-10 renal): 36 µM | TGI (K-562 leukemia): > 25.7 µM | TGI (SK-MEL-2 melanoma): 33.6 µM | TGI (A549 NSCLC): 27.8 µM | TGI (OVCAR-4 ovarian): > 42.7 µM | TGI (SF-539 CNS): 8.36 µM | TGI (NCI-H460 lung): 15.6 µM | TGI (OVCAR-8 ovarian): 11.4 µM | TGI (M14 melanoma): > 49.3 µM | TGI (SF-295 CNS): 24.8 µM | TGI (786-0 renal): 6.52 µM | TGI (MOLT-4 leukemia): 3.6 µM | TGI (OVCAR-5 ovarian): > 81.2 µM | TGI (ACHN renal): 17.4 µM | TGI (HCT-15 colon): > 100 µM | TGI (EKVX NSCLC): > 63.6 µM | TGI (NCI-H522 lung): 6.13 µM | TGI (UO-31 renal): 28.7 µM | TGI (UACC-257 melanoma): > 54.9 µM | TGI (SK-MEL-28 melanoma): 32.7 µM | TGI (HCC-2998 colon): 13.1 µM | TGI (SK-OV-3 ovarian): 35.1 µM | TGI (HOP-62 NSCLC): 16.6 µM | TGI (A498 renal): 23.4 µM | TGI (SK-MEL-5 melanoma): 20.1 µM | TGI (NCI-H23 lung): 33.4 µM | TGI (U251 CNS): 6.26 µM | TGI (NCI-H226 lung): 20.8 µM | TGI (LOX IMVI melanoma): 3.15 µM | TGI (SNB-19 CNS): 16.8 µM | TGI (KM12 colon): > 27.5 µM | TGI (NCI/ADR-RES ovarian): > 100 µM | TGI (COLO 205 colon): 14.5 µM | TGI (RPMI-8226 leukemia): 26.6 µM | TGI (RXF 393 renal): 10.5 µM | TGI (SN12C renal): 17.1 µM
